Measured values from patent publication US5643784A, “Indan derivatives” (H, Lundbeck A/S, priority 1990, dated 1997).
pIC50: −log10 of the molar value.

Tests used:
[1] = system: male albino BKW mice; assay: Light/dark discrimination test in mice; type: in vivo, mouse; conditions: intraperitoneally 45 min before testing, doses from 0.01 to 1 mg/kg
Protocol: LIGHT/DARK DISCRIMATION TEST IN MICE
This test was carried out in accordance with the method described in Costall et al. Br. J. Pharmacol. 90 275P (1987).
The test was conducted using a two compartment activity box in which the actions of anxiolytic compounds to reduce aversion against a brightly-lit environment may be readily detected. The box is designed as an open-top experimental box (45*27*27 cm) one third of which was partitioned from the rest, painted black and illuminated with red light. The remainder of the box was painted white and brightly illuminated (1000 W). The floor of each area was lined into squares. Behavioral changes were determined for each area from video recordings for periods of 40 min.
Data obtained from dose groups of 5 animals (male albino BKW mice, 25-30 g) were analysed using single factor analysis of variance, and Dunnett's t-test. Test compounds were given intraperitoneally 45 min before testing.

[2] = target: α1 adrenoceptors; assay: Inhibition of 3H-prazosin binding to α1 adrenoceptors in rat brain in vitro; conditions: 3H-Prazosin 0.25 nM, rat brain, 25° C., 20 min; read-out: Receptor Binding; IC50 α1 3H-Praz
[3] = target: T1, 5-HT2 receptors (Rattus norvegicus, UniProt P14842); assay: Inhibition of 3H-ketanserin binding to 5-HT2 receptors in rat cortex in vitro; conditions: 3H-Ketanserin 0.5 nM, rat cortex, 37° C., 30 min; read-out: Receptor Binding; IC50 5-HT2 3H-Ket
T1 construct: cortical tissue is dissected and weighed; from tissue; host or cells: cortex of male Wistar rats, crude membranes

[4] = system: Wistar WU rats; assay: Light/dark discrimination test in rats; type: in vivo, rat; conditions: doses from 0.1 to 1 mg/kg
Protocol: LIGHT/DARK DISCRIMINATION TEST IN RATS
The test was carried out similarly to the test in mice described above, however modified in accordance with F. C. Colpaert et al., Psychopharmacology (1985) 86:45-54. The test used Wistar WU rats.

[5] = Meert and Janssen, Drug Dev. Res. 1989, 18, 119; cited from earlier work
[6] = target: T2, dopamine D-2 receptors (Rattus norvegicus, UniProt P61169); assay: Inhibition of 3H-spiperone binding to dopamine D-2 receptors in rat corpus striatum in vitro; conditions: 3H-spiperone 0.5 nM, rat corpus striatum, 37° C., 10 min; read-out: Receptor Binding; IC50 DA D-2 3H-Spi
T2 construct: striatal tissue is dissected and weighed; from tissue; host or cells: corpus striatum of male Wistar rats, crude membranes
T2 sequence (P61169 whole entry): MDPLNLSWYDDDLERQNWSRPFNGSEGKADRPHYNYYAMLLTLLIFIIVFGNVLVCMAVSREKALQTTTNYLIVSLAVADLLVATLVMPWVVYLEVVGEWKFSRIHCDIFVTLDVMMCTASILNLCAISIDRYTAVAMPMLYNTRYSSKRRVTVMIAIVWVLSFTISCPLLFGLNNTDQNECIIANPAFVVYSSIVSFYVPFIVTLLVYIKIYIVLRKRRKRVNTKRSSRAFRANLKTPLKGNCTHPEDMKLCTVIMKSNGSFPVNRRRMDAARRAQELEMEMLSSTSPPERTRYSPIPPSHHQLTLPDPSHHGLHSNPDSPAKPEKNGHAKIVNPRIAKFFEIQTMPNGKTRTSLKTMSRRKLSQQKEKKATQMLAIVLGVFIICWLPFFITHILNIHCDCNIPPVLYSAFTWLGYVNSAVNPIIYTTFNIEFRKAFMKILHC

T1 sequence (P14842 whole entry): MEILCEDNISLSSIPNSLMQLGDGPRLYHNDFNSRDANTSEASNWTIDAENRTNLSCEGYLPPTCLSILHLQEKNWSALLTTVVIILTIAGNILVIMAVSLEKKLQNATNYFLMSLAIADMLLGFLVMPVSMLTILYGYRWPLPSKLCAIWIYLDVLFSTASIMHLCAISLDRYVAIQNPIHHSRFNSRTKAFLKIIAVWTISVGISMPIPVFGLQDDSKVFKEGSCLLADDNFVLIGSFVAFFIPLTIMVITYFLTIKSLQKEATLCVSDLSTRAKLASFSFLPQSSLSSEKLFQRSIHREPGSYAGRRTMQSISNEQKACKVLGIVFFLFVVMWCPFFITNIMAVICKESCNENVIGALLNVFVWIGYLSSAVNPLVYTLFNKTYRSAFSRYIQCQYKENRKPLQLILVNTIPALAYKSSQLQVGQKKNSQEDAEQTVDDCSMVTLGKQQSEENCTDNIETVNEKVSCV

pIC50 [6] | Compound | anxiolytic activity [1] | pIC50 [2] | pIC50 [3] | anxiolytic activity [4] | effect in the treatment of anxiety and depression [5]
– | Fc1ccc([C@@H]2C[C@@H](N3CCN(CCN4CCCNC4=S)CC3)c3ccc(F)cc32)cc1 (single isomer, unassigned) [(+)-30, (+)-Trans-1-[2-[4-[5-fluoro-3-(4-fluorophenyl)-2,3-dihydro-1H-inden-1-yl]piperazin-1-yl]ethyl]-tetrahydro-2(1H)-pyrimidinethione] | significant anxiolytic activity (p<0.05) in doses from 0.01 to 1 mg/kg | 7.37 | 9.02 | – | –
– | O=C1NCCCN1CCN1CCN([C@@H]2C[C@@H](c3ccc(F)cc3)c3cc(F)ccc32)CC1 (single isomer, unassigned) [(+)-33, (+)-Trans-1-[2-[4-[5-fluoro-3-(4-fluorophenyl)-2,3-dihydro-1H-inden-1-yl]piperazin-1-yl]ethyl]-tetrahydro-2(1H)-pyrimidinone] | significant anxiolytic activity (p<0.05) in doses from 0.01 to 1 mg/kg | 7.39 | 8.96 | significant anxiolytic activity (p<0.05) in doses from 0.1 to 1 mg/kg | –
– | Fc1ccc([C@@H]2C[C@@H](N3CCN(CCN4CCCNC4=S)CC3)c3ccc(Cl)cc32)cc1 (single isomer, unassigned) [(-)-32, (-)-Trans-1-[2-[4-[5-chloro-3-(4-fluorophenyl)-2,3-dihydro-1H-inden-1-yl]piperazin-1-yl]ethyl]-tetrahydro-2(1H)-pyrimidinethione] | significant anxiolytic activity (p<0.05) in doses from 0.01 to 1 mg/kg | 7.17 | 9.12 | significant anxiolytic activity (p<0.05) in doses from 0.1 to 1 mg/kg | –
7.92 | Cc1nc2sccn2c(=O)c1CCN1CCC(=C(c2ccc(F)cc2)c2ccc(F)cc2)CC1 [Ritanserin, reference compound] | – | 7.33 | – | – | effective in the treatment of anxiety and depression
